In one data set the test system is animals. The data set is described as follows: Feed supplementation for improving the fertility of animals (titration of the substance into the feed). The format is in vivo. An excerpt: It was found in our studies that phytohormones and beta-glucans appeared to work in a wide range of concentrations for improving the fertility of animals. The optimal concentrations may vary between different species, however, the skilled person will know how to obtain an optimal concentration for a given species, for instance by titration of the desired compound into the animal feed and testing when this would have the optimal effect. The following may serve as guidance in this process. A skilled person will appreciate that the amount of free IAA in the ready to use feed has to be adjusted in order to supply the animal with an effective amount of free IAA. In order to adjust the free IAA concentration in the feed so that a certain daily intake of free IAA is achieved, an estimate has to be made of the feed intake of an animal or animal group. A skilled person is aware of the feed intake of a particular (kind or group of) animal(s). Typically, the feed intake per day is between 0.5 and 10% of the body weight of the animal, with occasional exceptions as high as 20%. Elderly animals tend to eat less and are considered to have a feed intake per day between 0.1 and 5%, typically of 1% of their body mass. […] A particularly good source of such 1,3 and 1,6 beta glucans may be found in preparations of Agaricus blazei murill (ABM) or yeast cell walls. […] This corresponds to approximately 0.1 to 100 mg/kglw/day of 1,3 and 1,6 beta glucans. […] The effect of improving the fertility of animals was also observed when the feed of animals was supplemented with Gibberelin or Gibberellic acid.

In another data set the test system is humans. The settings on record: single doses of 0.1 g/kg body weight; cited from earlier work.

With `C=C1C[C@]23C[C@@]1(O)CC[C@H]2[C@@]12C=C[C@H](O)[C@@](C)(C(=O)O1)[C@H]2[C@@H]3C(=O)O` [Gibberellic acid], the fertility of animals entry with animals (between 0.01 and 0.1 mg/kglw/day, such as 0.04 mg/kglw/day) is “Optimal results”; with animals (range of 0.004 and 0.4 mg/kglw/day), “particularly pronounced”.
For the molecule `O=C(O)Cc1c[nH]c2ccccc12` [free IAA, indole-3-acetic acid], the “toxicity of single doses” value in the data set on humans is “non-toxic”. The fertility of animals result in the data set with animals (feed supplemented with free IAA instead of conjugated IAA) was “Particularly good results”; in the data set with animals (feeding with 0.4 mg/kglw/day) it was “very effective”; in the data set on animals (provided in feed in the range of 0.004 and 40 mg/kglw/day), “improved”.
In the case of 1,3 and 1,6 beta glucans, in the data set on animals (fed with 1 to 10 mg/kglw/day), the fertility of animals result is reported as “Excellent results”.

Values taken from patent publication US8084440B2, “Method for improving the fertility of animals” (Desol B.V., priority 2005, dated 2011).
